The source made the active and inactive calls. The calls are words filed in the database; no cut-off is given here.
Legend:
[1] = target: T1, Phosphatidylinositol 4,5-bisphosphate 3-kinase catalytic subunit alpha isoform (Homo sapiens, UniProt P42336); assay: Inhibition of PI3K p110alpha (unknown origin) using PIP2 as substrate preincubated for 10 mins followed by substrate addition measured after 1 hr
MCF7 = assay: Growth inhibition of human MCF7 cells by MTT assay; format: functional, cell-based; conditions: for IC50: Homo sapiens, MCF7
HCT-116 = assay: Growth inhibition of human HCT116 cells by MTT assay; format: functional, cell-based; conditions: for IC50: Homo sapiens, HCT-116
[2] = target: T1, Phosphatidylinositol 4,5-bisphosphate 3-kinase catalytic subunit alpha isoform; assay: Inhibition of PI3K p110alpha (unknown origin) assessed as residual activity using PIP2 as substrate preincubated for 10 mins followed by substrate addition measured after 1 hr relative to control; design: concentration or dose not given beside the values

T1 sequence (P42336 whole entry, canonical isoform): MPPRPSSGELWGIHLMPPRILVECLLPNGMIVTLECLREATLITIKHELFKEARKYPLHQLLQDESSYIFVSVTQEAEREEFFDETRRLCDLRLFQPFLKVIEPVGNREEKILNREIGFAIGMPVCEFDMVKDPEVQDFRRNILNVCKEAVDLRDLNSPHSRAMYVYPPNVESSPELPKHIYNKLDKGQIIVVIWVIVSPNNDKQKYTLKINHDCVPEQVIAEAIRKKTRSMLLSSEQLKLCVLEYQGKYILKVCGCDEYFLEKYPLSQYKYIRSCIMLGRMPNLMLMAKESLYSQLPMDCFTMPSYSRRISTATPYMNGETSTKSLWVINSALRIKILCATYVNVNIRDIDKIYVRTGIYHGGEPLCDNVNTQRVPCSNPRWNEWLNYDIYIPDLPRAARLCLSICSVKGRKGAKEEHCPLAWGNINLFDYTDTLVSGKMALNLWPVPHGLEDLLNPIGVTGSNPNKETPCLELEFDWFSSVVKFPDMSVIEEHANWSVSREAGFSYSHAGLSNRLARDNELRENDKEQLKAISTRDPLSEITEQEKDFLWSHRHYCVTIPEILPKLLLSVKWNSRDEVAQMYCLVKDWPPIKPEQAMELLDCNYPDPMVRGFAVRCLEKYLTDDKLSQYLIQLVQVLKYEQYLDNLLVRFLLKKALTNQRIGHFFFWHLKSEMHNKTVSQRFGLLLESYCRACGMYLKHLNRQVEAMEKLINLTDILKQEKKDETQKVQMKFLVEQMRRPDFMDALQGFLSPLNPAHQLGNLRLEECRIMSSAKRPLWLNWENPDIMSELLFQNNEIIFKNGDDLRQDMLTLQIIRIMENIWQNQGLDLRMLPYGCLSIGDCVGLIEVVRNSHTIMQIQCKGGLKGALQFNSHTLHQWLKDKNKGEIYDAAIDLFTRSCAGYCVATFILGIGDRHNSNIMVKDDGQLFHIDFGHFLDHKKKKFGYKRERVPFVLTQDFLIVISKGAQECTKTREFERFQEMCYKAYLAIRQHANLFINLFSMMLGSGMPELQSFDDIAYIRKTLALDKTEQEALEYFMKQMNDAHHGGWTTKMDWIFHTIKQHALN

Row | SMILES | IC50 [1] [µM] | growth inhibition (GI) (MCF7) [%] | IC50 (MCF7) [µM] | growth inhibition (GI) (HCT-116) | IC50 (HCT-116) [µM] | Activity [2] [%]
1 | O=C1CCCN1C(c1ccc(F)cc1)c1c(O)ccc2ccccc12 (centres undefined) | ≥ 0.05 | 80.23 | 0.981 | 60.92% | 6.98 | 83
2 | O=C1CCCN1C(c1ccc(O)cc1)c1c(O)ccc2ccccc12 (centres undefined) | ≥ 25 | 30.98 | 31 | 28.14% | 31 | 28
3 | O=C1CCCN1C(c1ccccc1F)c1c(O)ccc2ccccc12 (centres undefined) | ≥ 5 | 60.38 | 4.81 | 37.38% | 14.8 | 56
4 | COc1ccc(C(c2c(O)ccc3ccccc23)N2CCCC2=O)cc1 (centres undefined) | ≥ 10 | 38.98 | 12 | 56.44% | 12 | 38
5 | O=C1CCCN1C(c1ccc(Cl)cc1)c1c(O)ccc2ccccc12 (centres undefined) | < 25 | 23.14 | 92.2 | inactive |  | 42
6 | O=C1CCCN1C(c1cccc2ccccc12)c1c(O)ccc2ccccc12 (centres undefined) | < 5 | 60.46 | 4.47 | 36.14% | 24.8 | 59
7 | COC[C@H]1OC(=O)c2coc3c2[C@@]1(C)C1=C(C3=O)[C@@H]2CCC(=O)[C@@]2(C)C[C@H]1OC(C)=O |  |  |  |  |  | 76
8 | N#Cc1ccc(C(c2c(O)ccc3ccccc23)N2CCCC2=O)cc1 (centres undefined) | ≥ 25 | 33.41 | 80.3 | inactive |  | 28
9 | O=C1CCCN1C(c1ccc(Cl)cc1Cl)c1c(O)ccc2ccccc12 (centres undefined) | < 1 | 61.71 | 4.23 | 28.26% | 14.2 | 62
10 | COc1cccc2c1C(=O)c1c(O)c3c(c(O)c1C2=O)C[C@@](O)(C(=O)CO)C[C@@H]3O[C@H]1C[C@H](N)[C@H](O)[C@H](C)O1 [DOXORUBICIN] |  | 77.98 |  | inactive |  | 
11 | O=C1CCCN1C(c1ccc(O)cc1O)c1c(O)ccc2ccccc12 (centres undefined) | ≥ 25 | 35.02 | 84.7 | inactive |  | 22
12 | Cc1ccc(C(c2c(O)ccc3ccccc23)N2CCCC2=O)cc1 (centres undefined) | < 5 | 56.46 | 4.81 | 26.28% | 24.8 | 52
13 | O=C1CCCN1C(c1ccccc1Cl)c1c(O)ccc2ccccc12 (centres undefined) | ≥ 5 | 55.01 | 6.58 | 40.12% | 26.6 | 55
14 | COc1ccccc1C(c1c(O)ccc2ccccc12)N1CCCC1=O (centres undefined) | ≥ 25 | 21.81 | 92.1 | inactive |  | 22
15 | O=C1CCCN1C(c1ccccc1)c1c(O)ccc2ccccc12 (centres undefined) | ≥ 25 | 25.46 | 82.2 | inactive |  | 32
16 | COc1cccc(C(c2c(O)ccc3ccccc23)N2CCCC2=O)c1 (centres undefined) | ≥ 15 | 39.71 | 15.2 | 24.55% | 15.2 | 46
17 | O=C1CCCN1C(c1ccc(Br)cc1)c1c(O)ccc2ccccc12 (centres undefined) | ≥ 15 | 41.22 | 16.6 | 20.22% | 17.6 | 44
18 | O=C1CCCN1C(c1cccs1)c1c(O)ccc2ccccc12 (centres undefined) | ≥ 25 | 30.01 | 81.1 | inactive |  | 24
19 | O=C1CCCN1C(c1ccccc1Br)c1c(O)ccc2ccccc12 (centres undefined) | ≥ 0.05 | 76.06 | 1.03 | 48.12% | 12.9 | 79

From ChEMBL document CHEMBL4024737, “Iodine catalyzed three component synthesis of 1-((2-hydroxy naphthalen-1-yl)(phenyl)(methyl))pyrrolidin-2-one derivatives: Rationale as potent PI3K inhibitors and anticancer agents” (Bioorg Med Chem Lett, 2017)
